Measurements: US20230414601A1, “INJECTABLE COMPOSITION CONTAINING CASPASE INHIBITOR, AND PREPARATION METHOD THEREFOR” (LG CHEM, LTD., priority 2020, published 2023)

Experiment: Test for API loss according to continuous phase
Type: physicochemical
Description: A dispersed phase was prepared by dissolving a certain amount of the Test Compound (API) in an organic solvent (dichloromethane, DCM), and 1 mL of the prepared dispersed phase was added to each continuous phase and then stirred to measure the amount of the API extracted into the continuous phase.

## CC(C)[C@@]1(C(=O)N[C@H]2CC(=O)O[C@]2(O)CF)CC(c2nccc3ccccc23)=NO1 [Test Compound, (R)-N-((2S,3S)-2-(fluoromethyl)-2-hydroxy-5-oxotetrahydrofuran-3-yl)-5-isopropyl-3-(isoquinolin-1-yl)-4,5-dihydroisoxazole-5-carboxamide]
Continuous phase 0.01N HCl
  Amount of API extracted into continuous phase (%): 4.0%
Continuous phase DW, dispersed phase API in DCM, 1 mL
  Amount of API extracted into continuous phase (%): 3.7%
Continuous phase PVA 1 wt %
  Amount of API extracted into continuous phase (%): 24.9%
Continuous phase PVA 1 wt % + 1N HCl
  Amount of API extracted into continuous phase (%): 13.1%
Continuous phase PVA 5 wt %
  Amount of API extracted into continuous phase (%): 59.3%
